Columns and labels:
APESV = assay: greenhouse pre-emergence herbicidal test; type: in vivo, Apera spica-venti; settings: pre-emergence method, scale from 0 to 100
Description: (§1) The seeds of the test plants were sown separately for each species. For the pre-emergence treatment, the active ingredients, which had been suspended or emulsified in water, were applied directly after sowing by means of finely distributing nozzles. The containers were irrigated gently to promote germination and growth and subsequently covered with transparent plastic hoods until the plants had rooted. This cover caused uniform germination of the test plants, unless this had been impaired by the active ingredients. Depending on the species, the plants were kept at 10-25° C. or 20-35° C., respectively. The test period extended over 2 to 4 weeks. During this time, the plants were tended, and their response to the individual treatments was evaluated. Evaluation was carried out using a scale from 0 to 100. 100 means no emergence of the plants, or complete destruction of at least the aerial moieties, and 0 means no damage, or normal course of growth. […] The plants used in the greenhouse experiments were of the following species: [table]

ECHCG [1] = assay: greenhouse pre-emergence herbicidal test; type: in vivo, Echinocloa crus-galli; settings: pre-emergence method, scale from 0 to 100
Description: as §1

ALOMY = assay: greenhouse post-emergence herbicidal test; type: in vivo, Alopercurus myosuroides; settings: post-emergence method, scale from 0 to 100
Description: (§2) The seeds of the test plants were sown separately for each species. For the post-emergence treatment, the test plants were first grown to a height of 3 to 15 cm, depending on the plant habit, and only then treated with the active ingredients which had been suspended or emulsified in water. For this purpose, the test plants were either sown directly and grown in the same containers, or they were first grown separately as seedlings and transplanted into the test containers a few days prior to treatment. Depending on the species, the plants were kept at 10-25° C. or 20-35° C., respectively. The test period extended over 2 to 4 weeks. During this time, the plants were tended, and their response to the individual treatments was evaluated. Evaluation was carried out using a scale from 0 to 100. 100 means no emergence of the plants, or complete destruction of at least the aerial moieties, and 0 means no damage, or normal course of growth. […] The plants used in the greenhouse experiments were of the following species: [table]

AVEFA = assay: greenhouse post-emergence herbicidal test; type: in vivo, Avena fatua; settings: post-emergence method, scale from 0 to 100
Description: as §2

ECHCG [2] = assay: greenhouse post-emergence herbicidal test; type: in vivo, Echinocloa crus-galli; settings: post-emergence method, scale from 0 to 100
Description: as §2

Row | Structure (SMILES) | herbicidal activity against APESV (APESV; application rate 500 g/ha) | herbicidal activity against ECHCG (ECHCG [1]; application rate 500 g/ha) | herbicidal activity against ALOMY (ALOMY; application rate 500 g/ha) | herbicidal activity against AVEFA (AVEFA; application rate 500 g/ha) | herbicidal activity against APESV (APESV; application rate 1000 g/ha) | herbicidal activity against ECHCG (ECHCG [1]; application rate 1000 g/ha) | herbicidal activity against ALOMY (ALOMY; application rate 1000 g/ha) | herbicidal activity against AVEFA (AVEFA; application rate 1000 g/ha) | herbicidal activity against ECHCG (ECHCG [2]; application rate 1000 g/ha) | herbicidal activity against ECHCG (ECHCG [2]; application rate 500 g/ha)
1 | O=C(O)c1nc(C2CC2)ncc1-c1c(F)cc(F)cc1F [example 134] | very good (a very good herbicidal activity is given at values of at least 85) | very good (a very good herbicidal activity is given at values of at least 85) | very good (a very good herbicidal activity is given at values of at least 85) | very good (a very good herbicidal activity is given at values of at least 85) |  |  |  |  |  | 
2 | O=C(O)c1nc(C2CC2)ncc1-c1ccccc1Cl [example 141] | very good (a very good herbicidal activity is given at values of at least 85) | very good (a very good herbicidal activity is given at values of at least 85) | very good (a very good herbicidal activity is given at values of at least 85) | very good (a very good herbicidal activity is given at values of at least 85) |  |  |  |  |  | 
3 | COc1cccc(Cl)c1-c1cnc(C2CC2)nc1C(=O)O [example 178] | very good (a very good herbicidal activity is given at values of at least 85) | very good (a very good herbicidal activity is given at values of at least 85) | good (A good herbicidal activity is given at values of at least 70) | good (A good herbicidal activity is given at values of at least 70) |  |  |  |  |  | 
4 | COC(=O)c1nc(C2CC2)ncc1-c1cc(Br)ccc1F [example 191] |  |  |  |  | very good (a very good herbicidal activity is given at values of at least 85) | very good (a very good herbicidal activity is given at values of at least 85) | good (A good herbicidal activity is given at values of at least 70) | good (A good herbicidal activity is given at values of at least 70) | very good (a very good herbicidal activity is given at values of at least 85) | 
5 | COC(=O)c1nc(C2CC2)ncc1-c1ccc(F)cc1F [example 192] | very good (a very good herbicidal activity is given at values of at least 85) | very good (a very good herbicidal activity is given at values of at least 85) | very good (a very good herbicidal activity is given at values of at least 85) | very good (a very good herbicidal activity is given at values of at least 85) |  |  |  |  |  | 
6 | COC(=O)c1nc(C2CC2)ncc1-c1c(F)cc(F)cc1F [example 193] | very good (a very good herbicidal activity is given at values of at least 85) | very good (a very good herbicidal activity is given at values of at least 85) | very good (a very good herbicidal activity is given at values of at least 85) | very good (a very good herbicidal activity is given at values of at least 85) |  |  |  |  |  | 
7 | COC(=O)c1nc(C2CC2)ncc1-c1c(Br)ccc(F)c1F [example 197] |  |  |  |  | very good (a very good herbicidal activity is given at values of at least 85) | very good (a very good herbicidal activity is given at values of at least 85) | very good (a very good herbicidal activity is given at values of at least 85) | very good (a very good herbicidal activity is given at values of at least 85) |  | 
8 | COC(=O)c1nc(C2CC2)ncc1-c1c(F)cc(F)cc1Br [example 214] |  |  |  |  | very good (a very good herbicidal activity is given at values of at least 85) | very good (a very good herbicidal activity is given at values of at least 85) | very good (a very good herbicidal activity is given at values of at least 85) | very good (a very good herbicidal activity is given at values of at least 85) |  | 
9 | COC(=O)c1nc(C2CC2)ncc1-c1cc(F)c(F)cc1Br [example 215] | very good (a very good herbicidal activity is given at values of at least 85) | very good (a very good herbicidal activity is given at values of at least 85) | very good (a very good herbicidal activity is given at values of at least 85) | very good (a very good herbicidal activity is given at values of at least 85) |  |  |  |  |  | 
10 | O=C(OCc1ccccc1)c1nc(C2CC2)ncc1-c1ccccc1Cl [example 254] |  |  |  |  | very good (a very good herbicidal activity is given at values of at least 85) | very good (a very good herbicidal activity is given at values of at least 85) | very good (a very good herbicidal activity is given at values of at least 85) | very good (a very good herbicidal activity is given at values of at least 85) | very good (a very good herbicidal activity is given at values of at least 85) | 
11 | O=C(Oc1ccccc1)c1nc(C2CC2)ncc1-c1ccccc1Cl [example 255] |  |  |  |  | very good (a very good herbicidal activity is given at values of at least 85) | very good (a very good herbicidal activity is given at values of at least 85) | very good (a very good herbicidal activity is given at values of at least 85) | very good (a very good herbicidal activity is given at values of at least 85) | very good (a very good herbicidal activity is given at values of at least 85) | 
12 | C[Si](C)(C)CCOC(=O)c1nc(C2CC2)ncc1-c1ccccc1Cl [example 258] |  |  |  |  |  | very good (a very good herbicidal activity is given at values of at least 85) | very good (a very good herbicidal activity is given at values of at least 85) | very good (a very good herbicidal activity is given at values of at least 85) | very good (a very good herbicidal activity is given at values of at least 85) | 
13 | COc1ccc(OC(=O)c2nc(C3CC3)ncc2-c2ccccc2Cl)cc1 [example 259] | very good (a very good herbicidal activity is given at values of at least 85) | very good (a very good herbicidal activity is given at values of at least 85) | very good (a very good herbicidal activity is given at values of at least 85) | very good (a very good herbicidal activity is given at values of at least 85) |  |  |  |  |  | good (A good herbicidal activity is given at values of at least 70)
14 | O=C(NO)c1nc(C2CC2)ncc1-c1ccccc1Cl [example 290] | very good (a very good herbicidal activity is given at values of at least 85) | very good (a very good herbicidal activity is given at values of at least 85) | very good (a very good herbicidal activity is given at values of at least 85) | very good (a very good herbicidal activity is given at values of at least 85) |  |  |  |  |  | 
15 | O=C(O)c1nc(C2CC2)ncc1-c1c(Cl)cccc1C(F)(F)F [example 304] |  |  |  |  | very good (a very good herbicidal activity is given at values of at least 85) |  | very good (a very good herbicidal activity is given at values of at least 85) | very good (a very good herbicidal activity is given at values of at least 85) | very good (a very good herbicidal activity is given at values of at least 85) | 
16 | O=C(O)c1nc(C2CC2)ncc1-c1ccccc1I [example 311] | very good (a very good herbicidal activity is given at values of at least 85) | very good (a very good herbicidal activity is given at values of at least 85) | very good (a very good herbicidal activity is given at values of at least 85) | very good (a very good herbicidal activity is given at values of at least 85) |  |  |  |  |  | very good (a very good herbicidal activity is given at values of at least 85)

Reference: patent US10420341B2, “Herbicidal phenylpyrimidines” (BASF SE, priority 2015, dated 2019)
